Experimental data taken from article PMC10349806 (Nature Communications, 2023).
Residue numbers refer to the chain shown, from its start. Where “and” joins values, the source holds several entries; their conditions need not be identical. Equal entries are not always repeated.

How the values were obtained:
[1] = biological target: T1, PfCRT variant H97A (Plasmodium falciparum, UniProt Q9N623, A220S/H97A/I356T/K76T/M74I/N326S/N75E/Q271E/R371I); assay: CQ uptake assay, oocytes expressing H97A; type: cell-based
T1 sequence (Q9N623 1-424 M74I/N75E/K76T/H97A/A220S/Q271E/N326S/I356T/R371I): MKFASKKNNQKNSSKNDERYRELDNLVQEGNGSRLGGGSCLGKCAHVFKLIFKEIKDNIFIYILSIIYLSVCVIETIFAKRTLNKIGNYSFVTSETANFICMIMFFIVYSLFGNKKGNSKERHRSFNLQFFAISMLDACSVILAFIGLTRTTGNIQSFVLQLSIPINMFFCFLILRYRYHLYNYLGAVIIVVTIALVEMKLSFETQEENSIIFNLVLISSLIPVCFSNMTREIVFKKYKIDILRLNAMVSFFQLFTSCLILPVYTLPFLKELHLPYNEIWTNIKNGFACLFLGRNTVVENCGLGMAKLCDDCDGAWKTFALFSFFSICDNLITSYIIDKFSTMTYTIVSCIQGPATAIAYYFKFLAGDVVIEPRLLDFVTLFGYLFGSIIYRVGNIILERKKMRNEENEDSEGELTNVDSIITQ
Description: (§1) Site-directed mutagenesis of PfCRT^Dd2 was performed as described using the megaprimer method with overlap extension[21],[54]. The primer pairs used are listed in Supplementary Table 6. Please note that a codon-optimized and oocyte-adapted version of PfCRT^Dd2 was used[22] (Supplementary Fig. 16). The resulting DNA fragment was cloned into the SP64T expression vector and verified by sequencing.
(§2) Oocytes were obtained as described previously. Briefly, adult (>2 years old) female X. laevis frogs (NASCO) were anesthetized in a cooled solution of ethyl 3-amino benzoate methanesulfonate (0.1%, w/v), followed by a surgical removal of parts of the ovary. The ovary lobes were carefully dissected and small pieces of oocytes were incubated in Ca^2+-free ND96 buffer (96 mM NaCl, 2 mM KCl, 1 mM MgCl2 buffered with 5 mM HEPES/NaOH, pH 7.5) supplemented with collagenase D (0.1%, w/v; Roche), BSA (0.5%, w/v), and 9 mm Na2HPO4 at 18 °C for 14-16 h while gentle shaking. After incubation, the oocytes were carefully washed several times with ND96 buffer (96 mM NaCl, 2 mM KCl, 1.8 mM CaCl2, 1 mM MgCl2 buffered with 5 mM HEPES/NaOH, pH 7.5) supplemented with 100 mg l^−1 gentamycin). Defolliculated and healthy-looking stage V-VI oocytes were manually selected for RNA microinjection. The RNA was generated as following: The codon-optimized sequences of PfCRT variants were cloned into the pSP64T expression vector. After vector linearization using the restriction endonucleases BamHI or SalI (New England Biolabs), transcription was performed using the in vitro SP6 mMessage mMachine Kit (Ambion)[34]. The obtained RNA was kept at −80 °C and diluted with nuclease-free water to a concentration of 0.6 μg μl^−1. Precision-bore glass capillary tubes (3.5-inch glass capillaries; Drummond Scientific Co.) were pulled on a vertical puller (P-87 Flaming/Brown micropipette puller, Sutter Instrument Co.), graduated, and placed on a microinjector (Nanoject II Auto-Nanoliter Injector, Drummond Scientific Co.). 50 nl of nuclease-free water alone (control oocytes) or 50 nl of 0.6 μg μl^−1 RNA were injected under stereomicroscopic control. Injected oocytes were incubated for 46–72 h at 18 °C with twice-daily buffer changes before usage in experiments.
Drug uptake assays were performed as described previously[21],[22],[24],[34]. […] Oocytes that were injected with water instead of RNA were analyzed in parallel, representing the uptake of a drug by diffusion and/or endogenous permeation pathways. […] The specific PfCRT-mediated uptake was determined by subtracting the corresponding background value measured in water-injected oocytes from that of PfCRT-expressing oocytes. […]

[2] = biological target: T2, PfCRT variant E207L (Plasmodium falciparum, UniProt Q9N623, A220S/E207L/I356T/K76T/M74I/N326S/N75E/Q271E/R371I); assay: CQ uptake assay, oocytes expressing E207L; type: cell-based
T2 construct: expressed in transfected cells; host or cells: Xenopus laevis oocytes injected with in vitro transcribed RNA (pSP64T)
T2 sequence (Q9N623 1-424 M74I/N75E/K76T/E207L/A220S/Q271E/N326S/I356T/R371I): T1 sequence (Q9N623 1-424 M74I/N75E/K76T/H97A/A220S/Q271E/N326S/I356T/R371I) with A97H, E207L
Description: as §1, §2
Drug uptake assays were performed as described previously[21],[22],[24],[34]. […] The direction of radio-labeled drug transport is here from the mostly acidic extracellular solution (pH 4.5 or 6.0, as indicated) into the oocyte cytosol (pH ∼ 7.2), which corresponds to the efflux of drug from the acidic digestive vacuole (pH 5.2) into the parasite cytoplasm (pH 7.2). The topology of PfCRT in the oolemma is such that both the N- and C-terminus face the extracellular milieu[3],[22]. In the parasite, the N- and C-terminus face the lumen of the digestive vacuole. […] For determination of the amount of drug uptake for each oocyte, the reaction medium was removed and the oocytes were washed three times with 2 ml of ice-cold ND96 buffer. Each oocyte was individually transferred to a scintillation vial containing 5% sodium dodecyl sulfate (200 μl) for lysis. […] Oocytes that were injected with water instead of RNA were analyzed in parallel, representing the uptake of a drug by diffusion and/or endogenous permeation pathways. The resulting value represents the “background“ level of drug accumulation in oocytes (in-depth discussion in[22]). The specific PfCRT-mediated uptake was determined by subtracting the corresponding background value measured in water-injected oocytes from that of PfCRT-expressing oocytes. In all cases, at least three separate experiments were performed on oocytes from different frogs (biological replicate), and for each condition in an experiment, measurements were made from 10 oocytes per treatment. For pH 5.5, 6.0, and 6.5, ND96 was buffered with 5 mM MES/Tris base.

[3] = E207L, 50 µM CQ, 1 h, mean ± SEM

## CCN(CC)CCCC(C)Nc1ccnc2cc(Cl)ccc12 (stereo not shown) [CQ, chloroquine]
[1]; H97A, 50 µM CQ, 1 h, mean ± SEM
  Activity at pH 6.0: 6.57 ± 0.71 pmol h-1 oocyte-1
[1]; H97A, CQ transport at pH 4.5 / pH 6.0
  R-value: 0.40 and 0.40 ± 0.04
[1]; pH 4.5, single replicates, Fig 1d left
  H97A transport activity pH 4.5: 3.71 pmol oocyte-1 h-1 and 4.69 pmol oocyte-1 h-1 and 2.51 pmol oocyte-1 h-1 and 3.21 pmol oocyte-1 h-1 and 2.32 pmol oocyte-1 h-1 and 1.49 pmol oocyte-1 h-1 and 2.15 pmol oocyte-1 h-1 and 1.58 pmol oocyte-1 h-1
[1]; pH 6.0, single replicates, Fig 1d left
  H97A transport activity pH 6.0: 9.31 pmol oocyte-1 h-1 and 6.25 pmol oocyte-1 h-1 and 4.00 pmol oocyte-1 h-1 and 9.52 pmol oocyte-1 h-1 and 5.42 pmol oocyte-1 h-1 and 3.89 pmol oocyte-1 h-1 and 6.61 pmol oocyte-1 h-1 and 7.56 pmol oocyte-1 h-1
[2]; [3]
  Activity at pH 4.5: 2.10 ± 0.17 pmol h-1 oocyte-1
  Activity at pH 6.0: 2.25 ± 0.22 pmol h-1 oocyte-1
[2]; E207L, CQ transport at pH 4.5 / pH 6.0
  R-value: 0.95 ± 0.04
[2]; pH 4.5, individual replicates, Fig 6b
  E207L transport activity pH 4.5: 2.14 pmol oocyte-1 h-1 and 2.36 pmol oocyte-1 h-1 and 2.37 pmol oocyte-1 h-1 and 1.53 pmol oocyte-1 h-1
[2]; pH 6.0, individual replicates, Fig 6b
  E207L transport activity pH 6.0: 2.70 pmol oocyte-1 h-1 and 2.35 pmol oocyte-1 h-1 and 1.52 pmol oocyte-1 h-1
[2]; ratio of activity pH 4.5 / pH 6.0
  E207L R-value: 0.79 and 1.00 and 0.98 and 1.01
